{"source": "PubChem BioAssay AID2060624", "about": "(Molecular Pharmacology Branch, DTP, NCI, 2025)", "test_system": "217524-143-R1-J4-PDC spheroids with HUVEC/MSC, viability", "assay": "Anticancer human tumor 217524-143-R1-J4-PDC patient-derived pancreatic carcinoma cell line growth inhibition [CLK]", "conditions": "for IC50: curve of first compound; for viability, T/C: stronger effect = lower value", "in_short": "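Multi-cell-type spheroids combined patient-derived tumor cells with HUVEC endothelial cells and human mesenchymal stem cells. Paired agents were dosed in half-log steps down from about clinical Cmax, or from 10 microM where Cmax was unknown.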", "key": {"[1]": {"conditions": "second compound 0.0316 µM, first compound 0.0316 µM"}, "[2]": {"conditions": "second compound 0.0316 µM, first compound 0.1 µM"}, "[3]": {"conditions": "second compound 0.0316 µM, first compound 0.316 µM"}, "[4]": {"conditions": "second compound 0.0316 µM, first compound 1 µM"}, "[5]": {"conditions": "second compound 0.1 µM, first compound 0.0316 µM"}, "[6]": {"conditions": "second compound 0.1 µM, first compound 0.1 µM"}, "[7]": {"conditions": "second compound 0.1 µM, first compound 0.316 µM"}, "[8]": {"conditions": "second compound 0.1 µM, first compound 1 µM"}, "[9]": {"conditions": "second compound 0.316 µM, first compound 0.0316 µM"}, "[10]": {"conditions": "second compound 0.316 µM, first compound 0.1 µM"}, "[11]": {"conditions": "second compound 0.316 µM, first compound 0.316 µM"}, "[12]": {"conditions": "second compound 0.316 µM, first compound 1 µM"}, "[13]": {"conditions": "second compound 1 µM, first compound 0.0316 µM"}, "[14]": {"conditions": "second compound 1 µM, first compound 0.1 µM"}, "[15]": {"conditions": "second compound 1 µM, first compound 0.316 µM"}, "[16]": {"conditions": "second compound 1 µM, first compound 1 µM"}, "[17]": {"conditions": "second compound 3.16 µM, first compound 0.0316 µM"}, "[18]": {"conditions": "second compound 3.16 µM, first compound 0.1 µM"}, "[19]": {"conditions": "second compound 3.16 µM, first compound 0.316 µM"}, "[20]": {"conditions": "second compound 3.16 µM, first compound 1 µM"}, "[21]": {"conditions": "second compound 10 µM, first compound 0.0316 µM"}, "[22]": {"conditions": "second compound 10 µM, first compound 0.1 µM"}, "[23]": {"conditions": "second compound 10 µM, first compound 0.316 µM"}, "[24]": {"conditions": "second compound 10 µM, first compound 1 µM"}}}
{"compound": "CCc1c2c(nc3ccc(O)cc13)-c1cc3c(c(=O)n1C2)COC(=O)[C@]3(O)CC", "note": "+ CNC(=O)c1ccc(Nc2nc(OC3CCCC3)c3c(-c4ccc5nc(C)oc5c4)c[nH]c3n2)c(OC)c1;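 note: spheroids exposed to agents for seven days before reading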;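 for viability, T/C: 100% = DMSO vehicle control viability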", "values": [{"measurement": "IC50", "setting": "second compound 0.0316 µM", "result": 3.76, "unit": "nM"}, {"measurement": "IC50", "setting": "second compound 0.1 µM", "result": "< 3.16", "unit": "nM"}, {"measurement": "IC50", "setting": "second compound 0.316 µM", "result": "< 3.16", "unit": "nM"}, {"measurement": "IC50", "setting": "second compound 1 µM", "result": "< 3.16", "unit": "nM"}, {"measurement": "IC50", "setting": "second compound 3.16 µM", "result": "< 3.16", "unit": "nM"}, {"measurement": "IC50", "setting": "second compound 10 µM", "result": "< 3.16", "unit": "nM"}, {"measurement": "viability, T/C", "setting": "second compound 0.0316 µM, first compound 0.00316 µM", "result": 53.2, "unit": "%"}, {"measurement": "viability, T/C", "setting": "second compound 0.0316 µM, first compound 0.01 µM", "result": 39.4, "unit": "%"}, {"measurement": "viability, T/C", "setting": "[1]", "result": 32.2, "unit": "%"}, {"measurement": "viability, T/C", "setting": "[2]", "result": 24.1, "unit": "%"}, {"measurement": "viability, T/C", "setting": "[3]", "result": 15.6, "unit": "%"}, {"measurement": "viability, T/C", "setting": "[4]", "result": 3.04, "unit": "%"}, {"measurement": "viability, T/C", "setting": "second compound 0.1 µM, first compound 0.00316 µM", "result": 48.7, "unit": "%"}, {"measurement": "viability, T/C", "setting": "second compound 0.1 µM, first compound 0.01 µM", "result": 35.8, "unit": "%"}, {"measurement": "viability, T/C", "setting": "[5]", "result": 27.9, "unit": "%"}, {"measurement": "viability, T/C", "setting": "[6]", "result": 24.6, "unit": "%"}, {"measurement": "viability, T/C", "setting": "[7]", "result": 17.4, "unit": "%"}, {"measurement": "viability, T/C", "setting": "[8]", "result": 3.12, "unit": "%"}, {"measurement": "viability, T/C", "setting": "second compound 0.316 µM, first compound 0.00316 µM", "result": 39.6, "unit": "%"}, {"measurement": "viability, T/C", "setting": "second compound 0.316 µM, first compound 0.01 µM", "result": 30.1, "unit": "%"}, {"measurement": "viability, T/C", "setting": "[9]", "result": 25.1, "unit": "%"}, {"measurement": "viability, T/C", "setting": "[10]", "result": 21.4, "unit": "%"}, {"measurement": "viability, T/C", "setting": "[11]", "result": 12.9, "unit": "%"}, {"measurement": "viability, T/C", "setting": "[12]", "result": 3.58, "unit": "%"}, {"measurement": "viability, T/C", "setting": "second compound 1 µM, first compound 0.00316 µM", "result": 24.6, "unit": "%"}, {"measurement": "viability, T/C", "setting": "second compound 1 µM, first compound 0.01 µM", "result": 20.5, "unit": "%"}, {"measurement": "viability, T/C", "setting": "[13]", "result": 17.6, "unit": "%"}, {"measurement": "viability, T/C", "setting": "[14]", "result": 15.6, "unit": "%"}, {"measurement": "viability, T/C", "setting": "[15]", "result": 9.88, "unit": "%"}, {"measurement": "viability, T/C", "setting": "[16]", "result": 3.65, "unit": "%"}, {"measurement": "viability, T/C", "setting": "second compound 3.16 µM, first compound 0.00316 µM", "result": 23.6, "unit": "%"}, {"measurement": "viability, T/C", "setting": "second compound 3.16 µM, first compound 0.01 µM", "result": 20.8, "unit": "%"}, {"measurement": "viability, T/C", "setting": "[17]", "result": 15.6, "unit": "%"}, {"measurement": "viability, T/C", "setting": "[18]", "result": 13, "unit": "%"}, {"measurement": "viability, T/C", "setting": "[19]", "result": 9.01, "unit": "%"}, {"measurement": "viability, T/C", "setting": "[20]", "result": 2.91, "unit": "%"}, {"measurement": "viability, T/C", "setting": "second compound 10 µM, first compound 0.00316 µM", "result": 23.2, "unit": "%"}, {"measurement": "viability, T/C", "setting": "second compound 10 µM, first compound 0.01 µM", "result": 18.8, "unit": "%"}, {"measurement": "viability, T/C", "setting": "[21]", "result": 17, "unit": "%"}, {"measurement": "viability, T/C", "setting": "[22]", "result": 13.4, "unit": "%"}, {"measurement": "viability, T/C", "setting": "[23]", "result": 10, "unit": "%"}, {"measurement": "viability, T/C", "setting": "[24]", "result": 3.01, "unit": "%"}]}
{"compound": "COc1cccc2c1C(=O)c1c(O)c3c(c(O)c1C2=O)CC(O)(C(=O)CO)CC3OC1CC(N)C(O)C(C)O1", "note": "(centres undefined) + CNC(=O)c1ccc(Nc2nc(OC3CCCC3)c3c(-c4ccc5nc(C)oc5c4)c[nH]c3n2)c(OC)c1", "values": [{"measurement": "IC50", "setting": "second compound 0.0316 µM", "result": "< 31.6", "unit": "nM"}, {"measurement": "IC50", "setting": "second compound 0.1 µM", "result": "< 31.6", "unit": "nM"}, {"measurement": "IC50", "setting": "second compound 0.316 µM", "result": "< 31.6", "unit": "nM"}, {"measurement": "IC50", "setting": "second compound 1 µM", "result": "< 31.6", "unit": "nM"}, {"measurement": "IC50", "setting": "second compound 3.16 µM", "result": "< 31.6", "unit": "nM"}, {"measurement": "IC50", "setting": "second compound 10 µM", "result": "< 31.6", "unit": "nM"}, {"measurement": "viability, T/C", "setting": "[1]", "result": 32.9, "unit": "%"}, {"measurement": "viability, T/C", "setting": "[2]", "result": 32.3, "unit": "%"}, {"measurement": "viability, T/C", "setting": "[3]", "result": 25.3, "unit": "%"}, {"measurement": "viability, T/C", "setting": "[4]", "result": 17.2, "unit": "%"}, {"measurement": "viability, T/C", "setting": "second compound 0.0316 µM, first compound 3.16 µM", "result": 3.45, "unit": "%"}, {"measurement": "viability, T/C", "setting": "second compound 0.0316 µM, first compound 10 µM", "result": 0.92, "unit": "%"}, {"measurement": "viability, T/C", "setting": "[5]", "result": 38.2, "unit": "%"}, {"measurement": "viability, T/C", "setting": "[6]", "result": 33.7, "unit": "%"}, {"measurement": "viability, T/C", "setting": "[7]", "result": 23, "unit": "%"}, {"measurement": "viability, T/C", "setting": "[8]", "result": 18.9, "unit": "%"}, {"measurement": "viability, T/C", "setting": "second compound 0.1 µM, first compound 3.16 µM", "result": 2.48, "unit": "%"}, {"measurement": "viability, T/C", "setting": "second compound 0.1 µM, first compound 10 µM", "result": 1.28, "unit": "%"}, {"measurement": "viability, T/C", "setting": "[9]", "result": 32.2, "unit": "%"}, {"measurement": "viability, T/C", "setting": "[10]", "result": 28.5, "unit": "%"}, {"measurement": "viability, T/C", "setting": "[11]", "result": 16.5, "unit": "%"}, {"measurement": "viability, T/C", "setting": "[12]", "result": 12.8, "unit": "%"}, {"measurement": "viability, T/C", "setting": "second compound 0.316 µM, first compound 3.16 µM", "result": 2.83, "unit": "%"}, {"measurement": "viability, T/C", "setting": "second compound 0.316 µM, first compound 10 µM", "result": 0.97, "unit": "%"}, {"measurement": "viability, T/C", "setting": "[13]", "result": 25.2, "unit": "%"}, {"measurement": "viability, T/C", "setting": "[14]", "result": 18.7, "unit": "%"}, {"measurement": "viability, T/C", "setting": "[15]", "result": 11.8, "unit": "%"}, {"measurement": "viability, T/C", "setting": "[16]", "result": 7.57, "unit": "%"}, {"measurement": "viability, T/C", "setting": "second compound 1 µM, first compound 3.16 µM", "result": 1.43, "unit": "%"}, {"measurement": "viability, T/C", "setting": "second compound 1 µM, first compound 10 µM", "result": 0.99, "unit": "%"}, {"measurement": "viability, T/C", "setting": "[17]", "result": 18.7, "unit": "%"}, {"measurement": "viability, T/C", "setting": "[18]", "result": 16, "unit": "%"}, {"measurement": "viability, T/C", "setting": "[19]", "result": 13, "unit": "%"}, {"measurement": "viability, T/C", "setting": "[20]", "result": 6.9, "unit": "%"}, {"measurement": "viability, T/C", "setting": "second compound 3.16 µM, first compound 3.16 µM", "result": 0.62, "unit": "%"}, {"measurement": "viability, T/C", "setting": "second compound 3.16 µM, first compound 10 µM", "result": 1.17, "unit": "%"}, {"measurement": "viability, T/C", "setting": "[21]", "result": 22.2, "unit": "%"}, {"measurement": "viability, T/C", "setting": "[22]", "result": 14.7, "unit": "%"}, {"measurement": "viability, T/C", "setting": "[23]", "result": 10.7, "unit": "%"}, {"measurement": "viability, T/C", "setting": "[24]", "result": 6.9, "unit": "%"}, {"measurement": "viability, T/C", "setting": "second compound 10 µM, first compound 3.16 µM", "result": 0.98, "unit": "%"}, {"measurement": "viability, T/C", "setting": "second compound 10 µM, first compound 10 µM", "result": 1.5, "unit": "%"}]}
